Experimental data published in ChEMBL document CHEMBL4196098, “Structure-Activity Relationships and Therapeutic Potentials of 5-HT7 Receptor Ligands: An Update” (J Med Chem, 2018).
Each block holds one molecule with its values, some of them ahead of it.

How the values were obtained:
[1] = target: T1, 5-hydroxytryptamine receptor 1A (Rattus norvegicus, UniProt P19327); test: Displacement of [3H]-8-OH-DPAT from 5-HT1A in rat hippocampal membranes incubated for 20 mins by radioligand binding assay; type: cell membranes
T1 sequence (P19327 whole entry): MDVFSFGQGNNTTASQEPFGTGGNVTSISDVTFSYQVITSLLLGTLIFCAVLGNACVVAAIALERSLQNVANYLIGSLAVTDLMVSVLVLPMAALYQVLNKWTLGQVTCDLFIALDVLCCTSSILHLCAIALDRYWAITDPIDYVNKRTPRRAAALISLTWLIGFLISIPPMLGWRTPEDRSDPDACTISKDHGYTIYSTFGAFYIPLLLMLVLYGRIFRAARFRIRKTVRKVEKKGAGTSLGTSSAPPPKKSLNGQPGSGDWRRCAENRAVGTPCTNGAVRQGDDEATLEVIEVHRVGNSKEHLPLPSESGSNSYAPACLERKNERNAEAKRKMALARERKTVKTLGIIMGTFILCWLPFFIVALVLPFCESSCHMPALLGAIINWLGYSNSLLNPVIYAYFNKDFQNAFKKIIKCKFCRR

[2] = target: T2, 5-hydroxytryptamine receptor 7 (Rattus norvegicus, UniProt P32305); test: Displacement of [3H]lysergide from rat recombinant 5-HT7 receptor expressed in HEK293 cell membranes incubated for 60 mins by radioligand binding assay
[3] = Ratio of drug level in brain to plasma in mouse at 5 mg/kg, ip; type: ADME, organism-based; conditions: read-out: BPR
[4] = Intrinsic clearance in human liver microsomes; type: ADME, microsome; conditions: read-out: CLH
[5] = target: 5-hydroxytryptamine receptor 7 (Homo sapiens, UniProt P34969); test: Binding affinity to 5-HT7 receptor (unknown origin)
[6] = target: T2, 5-hydroxytryptamine receptor 7; test: Displacement of [3H]5-CT from rat 5-HT7 receptor expressed in HEK293 cell membranes by radioligand binding assay
[7] = target: 5-hydroxytryptamine receptor 2A (Homo sapiens, UniProt P28223); test: Binding affinity to 5-HT2A receptor (unknown origin)
[8] = target: T3, 5-hydroxytryptamine receptor 2C (Homo sapiens, UniProt P28335); test: Binding affinity to 5-HT2c receptor (unknown origin)
T3 sequence (P28335 whole entry): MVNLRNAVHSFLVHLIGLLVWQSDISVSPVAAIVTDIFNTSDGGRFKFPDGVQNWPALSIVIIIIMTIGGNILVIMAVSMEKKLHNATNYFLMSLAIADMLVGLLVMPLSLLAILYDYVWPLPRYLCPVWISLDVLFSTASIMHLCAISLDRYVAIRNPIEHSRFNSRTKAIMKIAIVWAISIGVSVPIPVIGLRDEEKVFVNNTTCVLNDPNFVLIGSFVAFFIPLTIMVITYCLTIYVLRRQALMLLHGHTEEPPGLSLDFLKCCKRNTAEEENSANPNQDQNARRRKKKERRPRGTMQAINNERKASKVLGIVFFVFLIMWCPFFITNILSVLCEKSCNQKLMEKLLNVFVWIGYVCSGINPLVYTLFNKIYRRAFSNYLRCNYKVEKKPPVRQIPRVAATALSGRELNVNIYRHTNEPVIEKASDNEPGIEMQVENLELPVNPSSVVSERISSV

[9] = target: T2, 5-hydroxytryptamine receptor 7; test: Displacement of [3H]-5-CT from 5-HT7 receptor in rat hypothalamus membranes by Cheng-Prusoff equation analysis; type: cell membranes, Membrane

Chain of 5-hydroxytryptamine receptor 7 (Homo sapiens, UniProt P34969) (P34969 whole entry): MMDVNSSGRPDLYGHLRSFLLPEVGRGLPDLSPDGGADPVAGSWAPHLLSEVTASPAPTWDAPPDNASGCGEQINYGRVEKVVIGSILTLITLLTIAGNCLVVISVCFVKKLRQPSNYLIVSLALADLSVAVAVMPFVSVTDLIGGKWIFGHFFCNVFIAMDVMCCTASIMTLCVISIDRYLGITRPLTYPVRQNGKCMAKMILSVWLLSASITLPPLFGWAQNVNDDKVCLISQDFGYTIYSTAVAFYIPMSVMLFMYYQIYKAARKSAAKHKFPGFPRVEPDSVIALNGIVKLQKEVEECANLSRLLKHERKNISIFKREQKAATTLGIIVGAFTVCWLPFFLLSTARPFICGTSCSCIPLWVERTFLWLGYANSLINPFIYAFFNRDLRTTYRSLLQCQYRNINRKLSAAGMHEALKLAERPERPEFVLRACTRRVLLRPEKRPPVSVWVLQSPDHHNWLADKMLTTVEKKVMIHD
T2 sequence (P32305 whole entry): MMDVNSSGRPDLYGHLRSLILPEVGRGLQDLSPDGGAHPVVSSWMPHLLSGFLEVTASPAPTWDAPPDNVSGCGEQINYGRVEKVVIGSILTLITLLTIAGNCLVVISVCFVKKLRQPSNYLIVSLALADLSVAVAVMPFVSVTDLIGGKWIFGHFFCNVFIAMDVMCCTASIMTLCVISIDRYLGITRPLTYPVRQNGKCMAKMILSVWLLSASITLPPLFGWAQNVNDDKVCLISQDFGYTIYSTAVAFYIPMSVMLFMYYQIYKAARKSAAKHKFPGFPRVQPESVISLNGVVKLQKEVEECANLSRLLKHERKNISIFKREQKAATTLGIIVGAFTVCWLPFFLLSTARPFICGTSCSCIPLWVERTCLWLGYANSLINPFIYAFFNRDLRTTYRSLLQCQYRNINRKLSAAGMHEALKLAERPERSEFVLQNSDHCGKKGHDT
Chain of 5-hydroxytryptamine receptor 2A (P28223 whole entry): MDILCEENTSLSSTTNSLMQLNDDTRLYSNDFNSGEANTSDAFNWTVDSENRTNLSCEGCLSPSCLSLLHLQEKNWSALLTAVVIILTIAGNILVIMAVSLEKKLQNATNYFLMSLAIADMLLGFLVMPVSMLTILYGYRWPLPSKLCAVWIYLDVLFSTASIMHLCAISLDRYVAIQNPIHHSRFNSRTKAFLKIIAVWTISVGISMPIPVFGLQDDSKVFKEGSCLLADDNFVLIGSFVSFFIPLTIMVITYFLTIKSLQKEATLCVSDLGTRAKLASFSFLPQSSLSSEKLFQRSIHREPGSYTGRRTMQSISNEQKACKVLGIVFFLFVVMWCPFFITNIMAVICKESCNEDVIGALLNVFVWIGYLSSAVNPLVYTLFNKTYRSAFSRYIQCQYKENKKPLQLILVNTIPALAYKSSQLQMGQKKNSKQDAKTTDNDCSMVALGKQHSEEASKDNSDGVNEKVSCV

SMILES: COc1cccc(CCN2CCN(c3ccccc3OC)CC2)c1
Ki [1]: 2.37 nM
Ki [2]: 24.5 nM

SMILES: Cc1nn(C)c(C)c1-c1cccc(CCN(C)C)c1
Ki [5]: 2.5 nM

SMILES: COc1cccc(CCN2CCN(c3ccccc3-c3ccccc3)CC2)c1
Ki [1]: 20 nM
Ki [2]: 7.5 nM

SMILES: CNC(=O)CN1c2ccccc2C2CCN(CCCCC34CCCc5cccc(c53)NC4=O)CC21 (centres undefined)
Ki [5]: 4 nM

SMILES: Cc1nn(C)c(C)c1-c1ccc(O)c(CCN(C)C)c1
Ki [5]: 0.47 nM

SMILES: Clc1ccc(-c2nn(Cc3ccccc3)c3c2CCNCC3)cc1 [JNJ-18038683 FREE BASE]
Ki [6]: 6.5 nM

Results, then the molecule that gave them:

Kp [3]: 6.34
CLint scaled [4]: 0.221 L/h/kg
SMILES: CCn1cncc1-c1c[nH]c2ccc(OC)cc12

CLint scaled [4]: 0.378 L/h/kg
SMILES: CCn1cncc1-c1c[nH]c2ccc(I)cc12

Ki [7]: 1.2 to 2 nM
Ki [8]: 1.2 to 2 nM
SMILES: Cc1ccc2c(c1)c1c(n2CCc2ccccc2)CCN(C)C1 [MARITUPIRDINE]

Ki [9]: 89 nM
SMILES: O=C1c2cccc3cccc(c23)N1CCCCCN1CCN(c2ccccc2)CC1 [UCM-5600]
